# Measured values taken from ChEMBL document CHEMBL3392978 (Eur J Med Chem, 2015).
# Experiments:
# Assay type in all cases: functional
# HepG2 = experiment: Growth inhibition of human HepG2 cells at 10 uM after 72 hrs by MTT assay; settings: HepG2, 72 h, read-out: GI
# MDA-MB-453 = experiment: Growth inhibition of human MDA-MB-453 cells at 10 uM after 72 hrs by MTT assay; settings: MDA-MB-453, 72 h, read-out: GI
# SW480 = experiment: Growth inhibition of human SW480 cells at 10 uM after 72 hrs by MTT assay; settings: SW480, 72 h, read-out: GI
# A-375 = experiment: Growth inhibition of human A375 cells at 10 uM after 72 hrs by MTT assay; settings: A-375, 72 h, read-out: GI
# NCI-H522 = experiment: Growth inhibition of human NCI-H522 cells at 10 uM after 72 hrs by MTT assay; settings: NCI-H522, 72 h, read-out: GI
# MCF7 = experiment: Growth inhibition of human MCF7 cells at 10 uM after 72 hrs by MTT assay; settings: MCF7, 72 h, read-out: GI
Structure (SMILES),inhibition of growth at 10 µM (HepG2) [%],inhibition of growth at 10 µM (MDA-MB-453) [%],inhibition of growth at 10 µM (SW480) [%],inhibition of growth at 10 µM (A-375) [%],inhibition of growth at 10 µM (NCI-H522) [%],inhibition of growth at 10 µM (MCF7) [%]
O=C(Nc1ccc(Cl)c(C(=O)Nc2ccc(-c3ncc[nH]3)nc2)c1)c1cccc(C(F)(F)F)c1,39.5,46.1,26.9,44.5,-27.4,39
O=C(Nc1ccc(Cl)c(C(=O)Nc2ccc(-c3ncc[nH]3)nc2)c1)c1ccc(C(F)(F)F)cc1,44,48.4,15.1,47.6,-22.9,35.3
Cc1cccc(C(=O)Nc2ccc(Cl)c(C(=O)Nc3ccc(-c4ncc[nH]4)nc3)c2)c1,24.8,23.6,30.8,40.8,5.3,34
Cc1ccc(C(=O)Nc2ccc(Cl)c(C(=O)Nc3ccc(-c4ncc[nH]4)nc3)c2)cc1,-2.7,23.2,21.1,30.1,17.2,22.4
O=C(Nc1ccc(Cl)c(C(=O)Nc2ccc(-c3ncc[nH]3)nc2)c1)c1cccc(F)c1,-12.9,19,16.7,32.3,7.6,29.7
O=C(Nc1ccc(Cl)c(C(=O)Nc2ccc(-c3ncc[nH]3)nc2)c1)c1cccc(Cl)c1,2.9,10.7,15.5,32.4,-1.8,29.8
COc1cccc(C(=O)Nc2ccc(Cl)c(C(=O)Nc3ccc(-c4ncc[nH]4)nc3)c2)c1,2.6,19.4,17.6,34.9,-2.9,29.6
O=C(Nc1ccc(Cl)c(C(=O)Nc2ccc(-c3ncc[nH]3)nc2)c1)c1ccc(F)cc1,-1.3,21.5,14.9,30.1,-8.8,33.4
O=C(Nc1ccc(Cl)c(C(=O)Nc2ccc(-c3ncc[nH]3)nc2)c1)c1ccc(Cl)cc1,38.9,36.4,13.4,29.6,-1.9,31.4
O=C(Nc1ccc(Cl)c(C(=O)Nc2ccc(-c3ncc[nH]3)nc2)c1)c1ccc(Cl)c(Br)c1,35.5,15.1,12.4,38.4,-15.4,29.1
O=C(Nc1cccc(C(F)(F)F)c1)c1ccc(Cl)c(C(=O)Nc2ccc(-c3ncc[nH]3)nc2)c1,29.9,19.7,18.9,44.1,-18,25.9
O=C(Nc1ccc(Cl)cc1)c1ccc(Cl)c(C(=O)Nc2ccc(-c3ncc[nH]3)nc2)c1,18.9,16.5,12.7,21.9,-20,19.4
O=C(Nc1cccc(Cl)c1)c1ccc(Cl)c(C(=O)Nc2ccc(-c3ncc[nH]3)nc2)c1,19.4,11.6,5.8,26.1,-16.2,26
